Data from US8507483B2, “1H-pyrimidin-2-one derivatives, preparation thereof and pharmaceutical use thereof as inhibitors of AKT (PKB) phosphorylation” (Sanofi, priority 2009, dated 2013).

How the values were obtained:
[1] = tested on: AKT protein phosphorylated on serine 473 in PC3 human prostate carcinoma cells; assay: pAKT expression in PC3 cells measured by western blotting (test A); assay type: cell-based; conditions: PC-3, inhibition of AKT Ser473 phosphorylation, 1 to 2 hours incubation, absolute IC50, mean of two experiments
Protocol: (§1) The inhibitory activity of the molecules on AKT phosphorylation is measured either by western blotting using the technique described below, or by the MSD Multi-spot Biomarker detection technique from Meso Scale Discovery also described below.
Study of pAKT expression in PC3 human prostate carcinoma cells measured by western blotting (test A):
This test is based on measuring the expression of the AKT protein phosphorylated on serine 473. The phosphorylation of AKT (pAKT) is measured by western blotting in the PC3 human prostate carcinoma line (ATCC CRL-1435), using an antibody that specifically recognises pAKT-5473.
(§2) On day 1, the PC3 cells are seeded into 6-well plates (TPP, #92006) at the concentration of 0.8×10^6 cells/well in 1800 μl of DMEM medium (DMEM Gibco #11960-044) containing 10% of foetal calf serum (SVF Gibco, #10500-056) and 1% glutamine (L-Glu Gibco #25030-024), and incubated at 37° C., 5% CO2, overnight.
(§3) On day 2, the cells are incubated in the presence or absence of the test products for 1 to 2 hours at 37° C. in the presence of 5% CO2. The molecules, diluted in dimethyl sulphoxide (DMSO Sigma #D2650), are added from a 10-times concentrated stock solution, the final percentage of DMSO being 0.1%. The molecules are tested either at a single concentration of less than or equal to 10 μM, or at increasing concentrations in a range that can extend from less than 1 nM to 10 μM.
After this incubation, the cells are lysed for the preparation of the proteins. After the culture medium has been drawn off, the cells are rinsed with 1 ml of PBS (DPBS Gibco, #14190-094), recovered by scraping in 200 μl of complete HNTG buffer and transferred into a 96-well plate (Greiner #651201), and lysed for 1 h on ice. The HNTG buffer is composed of the following mixture: 50 mM hepes, 150 mM NaCl, 1% triton, 10% glycerol, with extemporaneous addition of one Mini Protease Inhibitor Cocktail tablet (Roche 1836153) and of one Phosphatase Inhibitor Cocktail tablet (Roche 104906837001) per 10 ml of buffer.
The lysate is centrifuged for 10 min at 6000 rpm. 155 μl of supernatant are recovered. 150 μl are incubated for denaturation for 5 min at 95° C. in the presence of 4× NuPAGE LDS Sample Buffer diluted 4-fold (InVitrogen ref NP0007) and of 10× NuPAGE Sample Reducing Agent diluted 10-fold (InVitrogen ref NP0009). These samples are then frozen at −20° C. 5 μl are assayed by the microBCA technique according to the technical bulletin of the MicroBCA Protein Assay Kit (Pierce #23235).
For protein separation, 20 μg of proteins are loaded on to a NU-PAGE 4-12% Bis Tris Gel 12 well (InVitrogen ref NP0322BOX) and the migration is carried out for 1 h 30 in 20×NU-PAGE MOPS SDS Running Buffer diluted 20-fold (InVitrogen ref NP0001), at 150 volts.
The gel is then transferred onto an Invitrolon PVDF membrane (Invitrogen #LC2007) permeabilised beforehand for a few seconds in ethanol (Ethanol Fischer Scientific #E/0600DF/15).
The transfer is carried out in a Biorad tank at 30 volts overnight or at 60 volts for 3 hours, in the presence of 20× NUPAGE Transfer Buffer diluted 20-fold (InVitrogen ref NP0006).
The membrane is then saturated in saturating solution composed of TBS (10× Tris Buffered Saline, Sigma #T5912, diluted 10-fold), 0.1% Tween 20 (Sigma #P5927) and 3% BSA (Bovine Serum Albumin Fraction V, Sigma #A4503) for 6 h after overnight transfer or else for 1 h after transfer for a period of 3 h.
The primary antibodies are diluted to 1/1000th for the anti-phospho AKT-Ser473 antibody (193H2, rabbit monoclonal, cat#4058 from Cell Signaling Technology) Abcam), in saturating solution composed of […], 0.1% Tween 20 and 3% BSA, and then shaken overnight at 4° C.
Two rinses for 5 min in washing solution composed of TBS and 0.1% Tween 20 are carried out before hybridisation of the secondary antibodies. […]

[2] = tested on: AKT protein phosphorylated on serine 473 (P-AKT-S473) in PC3 human prostate carcinoma cells; assay: pAKT expression in PC3 cells measured by MSD Multi-spot Biomarker Detection (Test B); assay type: cell-based; conditions: PC-3, inhibition of AKT Ser473 phosphorylation, 1 to 2 h incubation, MSD sandwich immunoassay, absolute IC50, mean of two experiments
Protocol: as §1
Where appropriate, the activity of the products is translated into approximately IC50, obtained from a dose-response curve of various concentrations tested and representing the dose giving 50% of specific inhibition (absolute IC50). Two independent experiments make it possible to calculate the mean of the IC50s. Study of pAKT expression in PC3 human prostate carcinoma cells measured by the MSD Multi-spot Biomarker Detection technique from Meso Scale Discovery (Test B): This test is based on measuring the expression of the AKT protein phosphorylated on serine 473 (P-AKT-S473), in the PC3 human prostate carcinoma line, by means of the technique based on a sandwich immunoassay using the MSD Multi-spot Biomarker Detection kit from Meso Scale Discovery: phospho-Akt (Ser473) whole cell lysate kit (#K151 CAD) or phospho-Akt (Ser473)/Total Akt whole cell lysate kit (#K151OOD).
The primary antibody specific for P-AKT-5473 (Kit #K151 CAD) is coated onto an electrode in each well of the 96-well plates of the MSD kit: after the addition of a protein lysate to each well, the signal is visualised by adding a secondary detection antibody labelled with an electrochemoluminescent compound. The procedure followed is that described in the kit.
as §2, with “96-well” for “6-well”, “#92096)” for “#92006)”, “35 000” for “0.8×10^6”, “200” for “1800”, “(FCS” for “(SVF”
as §3, with “h” for “hours”, “5% of” for “5%”, “20-times” for “10-times”
After this incubation, the cells are lysed for the preparation of the proteins. For this, after the culture medium has been drawn off, […] of complete Tris Lysis Buffer of the MSD kit containing the protease and phosphatase inhibitor solutions are added to the wells and the cells are lysed for 1 h at 4° C. with shaking At this stage, the plates containing the lysates can be frozen at −20° C. or at −80° C.
The wells of the 96-well plates of the MSD kit are saturated for 1 h at ambient temperature with the blocking solution of the MSD kit. Four washes are carried out with 150 μl of Tris Wash Buffer of the MSD kit. The lysates previously prepared are transferred into the 96-well multi-spot plates of the MSD kit and incubated for 1 h at ambient temperature, with shaking Four washes are carried out with 150 μl of Tris Wash Buffer of the MSD kit. 25 μl of the MSD sulpho-tag detection antibody solution are added to the wells and incubated for 1 h at ambient temperature, with shaking Four washes are carried out with 150 μl of Tris Wash Buffer of the MSD kit. 150 μl of Read Buffer of the MSD kit are added to the wells and the plates are read immediately on the 512400 instrument from Meso Scale Discovery.
The instrument measures a signal for each well. Wells without cells and containing the lysis buffer serve to determine the background noise that will be subtracted from all the measurements (min). The wells containing cells in the absence of product and in the presence of 0.1% DMSO are considered to be the 100% signal (max). The percentage inhibition is calculated for each concentration of test product according to the following formula: (1−((test−min)/(max−min)))×100. […]

SMILES: O=c1cc(N2CCOCC2)nc(Cc2nc3ccc(F)cc3[nH]2)[nH]1 [Example 1, 2-[(5-fluoro-1H-benzimidazol-2-yl)methyl]-6-(morpholin-4-yl)pyrimidin-4(3H)-one]
- IC50 [1]: 298 nM
- IC50 [2]: 41 nM

SMILES: O=c1cc(N2CCOCC2)nc(Cc2nc3ccccc3o2)[nH]1 [Example 2, 2-(1,3-benzoxazol-2-ylmethyl)-6-(morpholin-4-yl)pyrimidin-4(3H)-one]
- IC50 [1]: 388 nM

SMILES: O=c1cc(N2CCOCC2)nc(Cc2nc3ccc(Br)cc3[nH]2)[nH]1 [Example 3, 2-[(5-bromo-1H-benzimidazol-2-yl)methyl]-6-(morpholin-4-yl)pyrimidin-4(3H)-one]
- IC50 [1]: 1340 nM
- IC50 [2]: 85 nM

SMILES: O=c1cc(N2CCOCC2)nc(Cc2nc3cc(F)c(F)cc3[nH]2)[nH]1 [Example 5, 2-[(5,6-difluoro-1H-benzimidazol-2-yl)methyl]-6-(morpholin-4-yl)pyrimidin-4(3H)-one]
- IC50 [1]: 1010 nM

SMILES: O=c1cc(N2CCOCC2)nc(Cc2nc3ccc(F)cc3o2)[nH]1 [Example 6, 2-[(6-fluoro-1,3-benzoxazol-2-yl)methyl]-6-(morpholin-4-yl)pyrimidin-4(3H)-one]
- IC50 [1]: 380 nM
- IC50 [2]: 49 nM

SMILES: O=c1cc(N2CCOCC2)nc(Cc2nc3cc(F)ccc3o2)[nH]1 [Example 7, 2-[(5-fluoro-1,3-benzoxazol-2-yl)methyl]-6-(morpholin-4-yl)pyrimidin-4(3H)-one]
- IC50 [1]: 903 nM
- IC50 [2]: 26 nM

SMILES: Cn1c(Cc2nc(N3CCOCC3)cc(=O)[nH]2)nc2ccccc21 [Example 10, 2-[(1-methyl-1H-benzimidazol-2-yl)methyl]-6-(morpholin-4-yl)pyrimidin-4(3H)-one]
- IC50 [1]: 713 nM
- IC50 [2]: 27 nM

SMILES: Cn1c(Cc2nc(N3CCOCC3)cc(=O)[nH]2)nc2cc(F)c(F)c(F)c21 [Example 39, 6-(Morpholin-4-yl)-2-[(5,6,7-trifluoro-1-methyl-1H-benzimidazol-2-yl)methyl]pyrimidin-4(3H)-one]
- IC50 [2]: 100 nM

SMILES: O=c1cc(N2CCOCC2)nc(Cc2nc3c(O)cccc3o2)[nH]1 [Example 40, 2-[(4-hydroxy-1,3-benzoxazol-2-yl)methyl]-6-(morpholin-4-yl)pyrimidin-4(3H)-one]
- IC50 [2]: 44 nM

SMILES: Cn1c(Cc2nc(N3CCOCC3)cc(=O)[nH]2)nc2cccc(Br)c21 [Example 41, 2-[(7-Bromo-1-methyl-1H-benzimidazol-2-yl)methyl]-6-(morpholin-4-yl)pyrimidin-4(3H)-one]
- IC50 [2]: 32 nM
